Data published in PubChem BioAssay AID248 (DTP/NCI, 2004).
“And” between values parts separate entries of the source, which are not always exact repeats. Identical values can stand only once. Inconclusive results and toxic doses are left out.

Test system: L1210 leukemia ip in BDF1 mice, survival T/C
Assay: NCI In Vivo Anticancer Drug Screen. Data for tumor model L1210 Leukemia (intraperitoneal) in B6D2F1 (BDF1) mice
Details: endpoint: mean survival time, higher = longer survival
Method in brief: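 Mice bearing the transplanted tumor received compound or vehicle. Survival of the treated group was divided by that of the vehicle-treated control group to give the ratio.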

[1] = dose: 25.0 mg/kg/injection, schedule: Q04DX003 (ip), vehicle: saline with Tween-80
[2] = dose: 50.0 mg/kg/injection, schedule: Q01DX009 (ip), vehicle: saline with Tween-80
[3] = dose: 50.0 mg/kg/injection, schedule: Q04DX003 (ip), vehicle: saline with Tween-80
[4] = dose: 100.0 mg/kg/injection, schedule: Q04DX003 (ip), vehicle: saline with Tween-80
[5] = dose: 100.0 mg/kg/injection, schedule: Q01DX009 (ip), vehicle: saline with Tween-80
[6] = dose: 200.0 mg/kg/injection, schedule: Q01DX009 (ip), vehicle: saline with Tween-80
[7] = dose: 200.0 mg/kg/injection, schedule: Q04DX003 (ip), vehicle: saline with Tween-80
[8] = dose: 400.0 mg/kg/injection, schedule: Q04DX003 (ip), vehicle: saline with Tween-80
[9] = dose: 100.0 mg/kg/injection, schedule: Q01DX001 (ip), vehicle: saline with Tween-80
[10] = dose: 400.0 mg/kg/injection, schedule: Q01DX001 (ip), vehicle: saline with Tween-80
[11] = dose: 400.0 mg/kg/injection, schedule: Q01DX009 (ip), vehicle: saline with Tween-80
[12] = dose: 100.0 mg/kg/injection, schedule: Q04DX003 (ip), vehicle: saline
[13] = dose: 200.0 mg/kg/injection, schedule: Q04DX003 (ip), vehicle: saline
[14] = dose: 400.0 mg/kg/injection, schedule: Q04DX003 (ip), vehicle: saline
[15] = dose: 100.0 mg/kg/injection, schedule: Q01DX009 (ip), vehicle: Klucel (hydroxypropylcellulose) (HPC)
[16] = dose: 100.0 mg/kg/injection, schedule: Q04DX003 (ip), vehicle: Klucel (hydroxypropylcellulose) (HPC)
[17] = dose: 200.0 mg/kg/injection, schedule: Q01DX009 (ip), vehicle: Klucel (hydroxypropylcellulose) (HPC)
[18] = dose: 200.0 mg/kg/injection, schedule: Q04DX003 (ip), vehicle: Klucel (hydroxypropylcellulose) (HPC)
[19] = dose: 400.0 mg/kg/injection, schedule: Q04DX003 (ip), vehicle: Klucel (hydroxypropylcellulose) (HPC)
[20] = dose: 100.0 mg/kg/injection, schedule: Q04DX002 (ip), vehicle: Klucel (hydroxypropylcellulose) (HPC)
[21] = dose: 50.0 mg/kg/injection, schedule: Q01DX001 (ip), vehicle: saline

Clc1ccc(-c2ncc3cnccn23)cc1Cl
T/C (dose: 25.0 mg/kg/injection, schedule: Q01DX009 (ip), vehicle: saline with Tween-80): 92 % of control | T/C [1]: 96 % of control | T/C [2]: 96 % of control | T/C [3]: 103 % of control | T/C [4]: 94 % of control and 96 % of control

CCCCN(CCCC)CCCCO
T/C [2]: 116 % of control | T/C [5]: 101 % of control | T/C [4]: 102 % of control | T/C [6]: 101 % of control | T/C [7]: 96 % of control

OCC1OCOC(CI)C(O)C1O (stereo unspecified)
T/C (dose: 100.0 mg/kg/injection, schedule: Q01DX001 (ip), vehicle: carboxymethylcellulose (CMC)): 97 % of control | T/C (dose: 200.0 mg/kg/injection, schedule: Q01DX001 (ip), vehicle: carboxymethylcellulose (CMC)): 101 % of control | T/C (dose: 400.0 mg/kg/injection, schedule: Q01DX001 (ip), vehicle: carboxymethylcellulose (CMC)): 97 % of control

CC(=O)Nc1ccc2oc(=O)ccc2c1
T/C [4]: 98 % of control | T/C [7]: 105 % of control | T/C [8]: 98 % of control

Cc1c(Cl)cccc1NC(=S)NC(=O)/C=C/c1ccccc1
T/C [3]: 96 % of control | T/C [9]: 90 % of control | T/C [5]: 98 % of control and 92 % of control | T/C (dose: 100.0 mg/kg/injection, schedule: Q04DX002 (ip), vehicle: saline with Tween-80): 96 % of control and 87 % of control | T/C [4]: 93 % of control and 102 % of control | T/C [6]: 95 % of control and 98 % of control | T/C (dose: 200.0 mg/kg/injection, schedule: Q04DX002 (ip), vehicle: saline with Tween-80): 107 % of control and 116 % of control | T/C [7]: 101 % of control | T/C [10]: 93 % of control | T/C [11]: 95 % of control and 90 % of control | T/C (dose: 400.0 mg/kg/injection, schedule: Q04DX002 (ip), vehicle: saline with Tween-80): 111 % of control and 112 % of control | T/C [8]: 102 % of control and 88 % of control

CCOc1ccc(NC(=S)N=Nc2c(O)[nH]c3c(Cl)cc(Cl)cc23)cc1
T/C [12]: 91 % of control | T/C [13]: 89 % of control | T/C [14]: 89 % of control

C[N+](C)(C)Cc1ncccc1OC(=O)N(c1ccccc1)c1ccccc1
T/C [1]: 96 % of control | T/C [3]: 96 % of control | T/C [4]: 96 % of control and 101 % of control

CC1(C)OC2OC(C(O)CO)C(O)C2O1 (stereo unspecified)
T/C (dose: 100.0 mg/kg/injection, schedule: Q04DX002 (ip), vehicle: saline): 86 % of control | T/C (dose: 200.0 mg/kg/injection, schedule: Q04DX002 (ip), vehicle: saline): 107 % of control | T/C (dose: 400.0 mg/kg/injection, schedule: Q04DX002 (ip), vehicle: saline): 90 % of control

O=C(Nc1ccc([N+](=O)[O-])cc1Cl)Oc1cccc2ccccc12
T/C [15]: 96 % of control | T/C [16]: 105 % of control | T/C [17]: 96 % of control | T/C [18]: 105 % of control | T/C (dose: 400.0 mg/kg/injection, schedule: Q01DX009 (ip), vehicle: Klucel (hydroxypropylcellulose) (HPC)): 102 % of control | T/C [19]: 105 % of control

CCN(CC)CCC(=O)c1ccccc1
T/C (dose: 12.5 mg/kg/injection, schedule: Q01DX009 (ip), vehicle: saline): 100 % of control | T/C (dose: 25.0 mg/kg/injection, schedule: Q01DX009 (ip), vehicle: saline): 97 % of control | T/C [2]: 96 % of control | T/C (dose: 50.0 mg/kg/injection, schedule: Q01DX009 (ip), vehicle: saline): 97 % of control | T/C [5]: 91 % of control

O=NN(CCCl)C(=O)Nc1ccc2[nH]c3ccccc3c2c1
T/C (dose: 90.0 mg/kg/injection, schedule: Q01DX009 (ip), vehicle: carboxymethylcellulose (CMC)): 120 % of control | T/C (dose: 260.0 mg/kg/injection, schedule: Q01DX009 (ip), vehicle: Klucel (hydroxypropylcellulose) (HPC)): 108 % of control | T/C (dose: 266.0 mg/kg/injection, schedule: Q01DX009 (ip), vehicle: carboxymethylcellulose (CMC)): 157 % of control | T/C (dose: 520.0 mg/kg/injection, schedule: Q01DX009 (ip), vehicle: Klucel (hydroxypropylcellulose) (HPC)): 88 % of control | T/C (dose: 600.0 mg/kg/injection, schedule: Q01DX009 (ip), vehicle: carboxymethylcellulose (CMC)): 108 % of control

Cc1cn(C2CC(OS(C)(=O)=O)C(CO)O2)c(=O)[nH]c1=O (stereo unspecified)
T/C (dose: 100.0 mg/kg/injection, schedule: Q01DX005 (ip), vehicle: saline): 102 % of control | T/C (dose: 200.0 mg/kg/injection, schedule: Q01DX005 (ip), vehicle: saline): 104 % of control

CCC(C)NC(=O)Nc1cccc(Cl)c1C (stereo unspecified)
T/C [5]: 86 % of control | T/C [4]: 90 % of control | T/C [7]: 95 % of control | T/C [11]: 89 % of control | T/C [8]: 103 % of control

CCCCCCCCCCCCNC(C)=O
T/C (dose: 100.0 mg/kg/injection, schedule: Q01DX005 (ip), vehicle: Klucel (hydroxypropylcellulose) (HPC)): 97 % of control | T/C [15]: 105 % of control | T/C [20]: 98 % of control | T/C [4]: 97 % of control | T/C (dose: 200.0 mg/kg/injection, schedule: Q01DX005 (ip), vehicle: Klucel (hydroxypropylcellulose) (HPC)): 94 % of control | T/C [17]: 99 % of control | T/C (dose: 200.0 mg/kg/injection, schedule: Q04DX002 (ip), vehicle: Klucel (hydroxypropylcellulose) (HPC)): 91 % of control | T/C [7]: 98 % of control | T/C (dose: 400.0 mg/kg/injection, schedule: Q01DX005 (ip), vehicle: Klucel (hydroxypropylcellulose) (HPC)): 102 % of control | T/C (dose: 400.0 mg/kg/injection, schedule: Q04DX002 (ip), vehicle: Klucel (hydroxypropylcellulose) (HPC)): 106 % of control | T/C [8]: 90 % of control

[O-][N+]1(c2ccc(Cl)cc2)CC[N+]([O-])(c2ccc(Cl)cc2)CC1 (stereo unspecified)
T/C [16]: 96 % of control | T/C [18]: 94 % of control | T/C [19]: 100 % of control

CCCCCCC(C)C1CCCCC1 (stereo unspecified)
T/C [9]: 96 % of control | T/C (dose: 200.0 mg/kg/injection, schedule: Q01DX001 (ip), vehicle: saline with Tween-80): 93 % of control | T/C [10]: 93 % of control

COCC(=O)C(C(C)=O)C(c1ccncc1)C(C(C)=O)C(=O)COC (stereo unspecified)
T/C [5]: 98 % of control | T/C [6]: 97 % of control | T/C [11]: 93 % of control

COc1cc(Cn2cccc2/C=N/NC(N)=S)cc(OC)c1
T/C (dose: 25.0 mg/kg/injection, schedule: Q04DX002 (ip), vehicle: Klucel (hydroxypropylcellulose) (HPC)): 105 % of control | T/C (dose: 50.0 mg/kg/injection, schedule: Q04DX002 (ip), vehicle: Klucel (hydroxypropylcellulose) (HPC)): 111 % of control | T/C [20]: 111 % of control

Cn1c(=O)c2[nH]c(C3CC4C5CCC(C5)C4C3)nc2n(C)c1=O (stereo unspecified)
T/C [21]: 100 % of control | T/C (dose: 100.0 mg/kg/injection, schedule: Q01DX001 (ip), vehicle: saline): 108 % of control | T/C (dose: 200.0 mg/kg/injection, schedule: Q01DX001 (ip), vehicle: saline): 100 % of control | T/C (dose: 400.0 mg/kg/injection, schedule: Q01DX001 (ip), vehicle: saline): 96 % of control

O=[N+]([O-])c1cccnc1Oc1cccc(C(F)(F)F)c1
T/C [12]: 100 % of control | T/C [13]: 105 % of control | T/C [14]: 104 % of control

CCOC(=O)NC(NC(=O)OCC)NC(=O)OCC
T/C (dose: 100.0 mg/kg/injection, schedule: Q01DX009 (ip), vehicle: saline): 102 % of control | T/C (dose: 200.0 mg/kg/injection, schedule: Q01DX009 (ip), vehicle: saline): 104 % of control | T/C (dose: 400.0 mg/kg/injection, schedule: Q01DX009 (ip), vehicle: saline): 104 % of control

O=C1c2cccc3cccc(c23)C(=O)N1O
T/C (dose: 100.0 mg/kg/injection, schedule: Q01DX001 (ip), vehicle: other): 104 % of control | T/C (dose: 200.0 mg/kg/injection, schedule: Q01DX001 (ip), vehicle: other): 98 % of control | T/C (dose: 400.0 mg/kg/injection, schedule: Q01DX001 (ip), vehicle: other): 106 % of control

CN(C(N)=O)C1CCCC1
T/C [12]: 96 % of control | T/C [13]: 91 % of control | T/C [14]: 96 % of control

Clc1ccccc1C[P+](c1ccccc1)(c1ccccc1)c1ccccc1
T/C (dose: 12.5 mg/kg/injection, schedule: Q01DX001 (ip), vehicle: saline): 92 % of control | T/C (dose: 25.0 mg/kg/injection, schedule: Q01DX001 (ip), vehicle: saline): 106 % of control | T/C [21]: 100 % of control

C=C(c1ccccc1)[P+](c1ccccc1)(c1ccccc1)c1ccccc1
T/C (dose: 15.0 mg/kg/injection, schedule: Q01DX001 (ip), vehicle: saline): 109 % of control

CC1(C)C(=O)C2C=CCC21 (stereo unspecified)
T/C [2]: 91 % of control | T/C [5]: 98 % of control | T/C [6]: 95 % of control
